In patent US8329658B2, “Arylalkyl and heteroarylalkyl derivatives of cyclosporine A for the treatment and prevention of viral infection” (Scynexis, Inc., priority 2005, dated 2012):

Legend:
HIV-1IIIB = test: HIV MTS cytoprotection assay in CEM-SS cells; assay type: cell-based, human immunodeficiency virus-1 (HIV); details: concentration inhibiting virus replication by 50%, 6 days post-infection, NS is no significant activity
Protocol: (§1) The compounds of the present invention were tested for antiretroviral activity against human immunodeficiency virus-1 (HIV) using infection of the human T-lymphoblastoid cell line, CEM-SS, with the HIV strain HIV-1IIIB (Weislow et al., 1989, J. Natl. Cancer Inst. 81, 577-586). In this MTS cytoprotection assay, each experiment included cell control wells (cells only), virus control wells (cells plus virus), drug toxicity wells (cells plus drug only), drug colorimetric control wells (drug only) as well as experimental wells (drug plus cells plus virus). Compounds were first dissolved in DMSO and tested using six half-log dilutions, starting with a high concentration of either 20 or 2 μM. […] was added to each well in a volume of 50 μL, the amount of virus determined to give approximately 90% cell killing at 6 days post-infection. At assay termination, assay plates were stained with the soluble tetrazolium-based dye MTS (CellTiter 96 Reagent, Promega) to determine cell viability and quantify compound toxicity. MTS is metabolized by the mitochondria enzymes of metabolically active cells to yield a soluble formazan product, providing a quantitative analysis of cell viability and compound cytotoxicity. The assay was validated in parallel experiments using Zidovudine (3′-azido-3′-deoxythymidine or AZT) as a positive control. The assay included determinations of compound EC50 (concentration inhibiting virus replication by 50%), IC50 (concentration resulting in 50% inhibition of cell growth) and a selectivity index (IC50/EC50).

HCV RNA replicon ET = test: HCV RNA replicon luciferase (LUC) reporter assay in ET cell line; assay type: cell-based; details: replicon LUC activity, ET cells, 72 hours; for EC50: concentration reducing viral replication by 50%; for EC90: concentration reducing viral replication by 90%
From the text: (§2) Compounds were examined in the human hepatoma cell line ET (lub ubi neo/ET), a HCV RNA replicon containing a stable luciferase (LUC) reporter. The HCV RNA replicon ET contains the 5′ end of HCV (with the HCV Internal Ribosome Entry Site (IRES) and the first few amino acids of the HCV core protein) which drives the production of a firefly luciferase (LUC), ubiquitin, and neomycin phosphotransferase (NeoR) fusion protein. Ubiquitin cleavage releases the LUC and NeoR proteins. The EMCV IRES element controls the translation of the HCV […] NS3-NS5. The NS3 protein cleaves the HCV polyprotein to release the mature NS3, NS4A, NS4B, NS5A and NS5B proteins that are required for HCV replication. At the 3′ end of the replicon is the authentic 3′ NTR of HCV. The activity of the LUC reporter is directly proportional to HCV replication levels and positive-control antiviral compounds produce a reproducible antiviral response using the LUC endpoint.
(§3) The compounds were dissolved in DMSO at five half-log concentrations each, ranging from either 0.02 to 2 μM or 0.2 to 20 μM. Subconfluent cultures of the ET line were plated out into 96 well plates dedicated for the analysis of cell numbers (cytotoxicity) or antiviral activity and the next day the compounds were added to the appropriate wells. […] Compound EC50 and EC90 values were derived from HCV RNA levels assessed as HCV RNA replicon derived LUC activity. […] Compound IC50 and IC90 values were calculated using a colorimetric assay as an indication of cell numbers and cytotoxicity. The activity of the LUC reporter is directly proportional to HCV RNA levels in the human cell line. The HCV-replicon assay was validated in parallel experiments using interferon-alpha-2b as a positive control.

[1] = test system: human hepatoma cell line ET (lub ubi neo/ET); test: Cytotoxicity (colorimetric cell number assay) in HCV replicon ET cell line; details: for IC50: read-out: Cytotoxicity IC50, concentration inhibiting cell viability by 50%, ET cells, 72 hours; for IC90: read-out: Cytotoxicity IC90, concentration inhibiting cell viability by 90%, ET cells, 72 hours
From the text: as §2, §3

[2] = test system: human T-lymphoblastoid cell line, CEM-SS; test: Cytotoxicity (MTS) in CEM-SS cells; assay type: cell-based; details: concentration resulting in 50% inhibition of cell growth
Protocol: as §1

Molecule | EC50 (HIV-1IIIB) [nM] | EC50 (HCV RNA replicon ET) [nM] | EC90 (HCV RNA replicon ET) [nM] | IC50 [1] [nM] | IC90 [1] [nM] | IC50 [2] [nM]
C/C=C/C[C@@H](C)[C@@H](O)[C@H]1C(=O)N[C@@H](CC)C(=O)N(C)C(OCc2cccs2)C(=O)N(C)[C@@H](CC(C)C)C(=O)N[C@@H](C(C)C)C(=O)N(C)[C@@H](CC(C)C)C(=O)N[C@@H](C)C(=O)N[C@H](C)C(=O)N(C)[C@@H](CC(C)C)C(=O)N(C)[C@@H](CC(C)C)C(=O)N(C)[C@@H](C(C)C)C(=O)N1C (stereo partly drawn) [C, 3-[(thiophene-2-yl)methoxy]cyclosporin] | 900 | 350 | 1260 | 11000 | > 20000 | > 20000
C/C=C/C[C@@H](C)[C@@H](O)[C@H]1C(=O)N[C@@H](CC)C(=O)N(C)C(OCc2ccoc2)C(=O)N(C)[C@@H](CC(C)C)C(=O)N[C@@H](C(C)C)C(=O)N(C)[C@@H](CC(C)C)C(=O)N[C@@H](C)C(=O)N[C@H](C)C(=O)N(C)[C@@H](CC(C)C)C(=O)N(C)[C@@H](CC(C)C)C(=O)N(C)[C@@H](C(C)C)C(=O)N1C (stereo partly drawn) [Compound E, 3-[(furan-3-yl)methoxy]cyclosporin] | 880 | 250 | 600 | > 20000 | > 20000 | > 20000
CC=CCC(C)C(O)C1C(=O)NC(CC)C(=O)N(C)C(SCc2ccccc2)C(=O)N(C)C(CC(C)C)C(=O)NC(C(C)C)C(=O)N(C)C(CC(C)C)C(=O)NC(C)C(=O)NC(C)C(=O)N(C)C(CC(C)C)C(=O)N(C)C(CC(C)C)C(=O)N(C)C(C(C)C)C(=O)N1C (stereo not drawn) [Compound A, 3-benzylthiocyclosporin] | 530 | 720 | 1840 | 20000 | > 20000 | > 20000
C/C=C/C[C@@H](C)[C@@H](O)[C@H]1C(=O)N[C@@H](CC)C(=O)N(C)C(OCc2ccco2)C(=O)N(C)[C@@H](CC(C)C)C(=O)N[C@@H](C(C)C)C(=O)N(C)[C@@H](CC(C)C)C(=O)N[C@@H](C)C(=O)N[C@H](C)C(=O)N(C)[C@@H](CC(C)C)C(=O)N(C)[C@@H](CC(C)C)C(=O)N(C)[C@@H](C(C)C)C(=O)N1C (stereo partly drawn) [D, 3-[(furan-2-yl)methoxy]cyclosporin] | 580 | 290 | 570 | 18000 | > 20000 | > 20000
C/C=C/C[C@@H](C)[C@@H](O)[C@H]1C(=O)N[C@@H](CC)C(=O)N(C)C(OCc2ccc(OC(F)(F)F)cc2)C(=O)N(C)[C@@H](CC(C)C)C(=O)N[C@@H](C(C)C)C(=O)N(C)[C@@H](CC(C)C)C(=O)N[C@@H](C)C(=O)N[C@H](C)C(=O)N(C)[C@@H](CC(C)C)C(=O)N(C)[C@@H](CC(C)C)C(=O)N(C)[C@@H](C(C)C)C(=O)N1C (stereo partly drawn) [F, 3-[(4-trifluoromethoxy)benzyloxy]cyclosporin] | > 20000 | 1180 | 5420 | > 20000 | > 20000 | > 20000
3-benzyloxycyclosporin [Compound B] | 590 | 260 | 590 | 20000 | > 20000 | > 20000
C/C=C/C[C@@H](C)[C@@H](O)[C@H]1C(=O)N[C@@H](CC)C(=O)N(C)C(OCc2ccsc2)C(=O)N(C)[C@@H](CC(C)C)C(=O)N[C@@H](C(C)C)C(=O)N(C)[C@@H](CC(C)C)C(=O)N[C@@H](C)C(=O)N[C@H](C)C(=O)N(C)[C@@H](CC(C)C)C(=O)N(C)[C@@H](CC(C)C)C(=O)N(C)[C@@H](C(C)C)C(=O)N1C (stereo partly drawn) [G, 3-[(thiophene-3-yl)methoxy]cyclosporin] | 3000 | 350 | 400 | > 20000 | > 20000 | > 20000
